Reference: a compilation of properties of binary mixtures (doi:10.1021/acs.jced.3c00247)

Assay: xn = mol fraction of the nth substance listed
Settings: 100 kPa

O + C[C@H](N)C(=O)[O-].C[N+](C)(C)CCO
x2 = 0
Settings | viscosity [mPa·s]
288.09 K | 1.08
289.33 K | 1.05
290.56 K | 1.02
291.75 K | 0.98
292.93 K | 0.96
294.1 K | 0.93
295.28 K | 0.9
297.64 K | 0.86
298.81 K | 0.84
301.17 K | 0.8
302.34 K | 0.78
303.52 K | 0.77
304.69 K | 0.75
305.87 K | 0.74
308.22 K | 0.71

C[C@H](N)C(=O)[O-].C[N+](C)(C)CCO + O
Settings | viscosity [mPa·s]
287.92 K, x1 = 0.097 | 10.7
287.94 K, x1 = 0.198 | 60
288 K, x1 = 0.3748 | 345
288 K, x1 = 0.4948 | 710
288.02 K, x1 = 0.5975 | 1059
288.02 K, x1 = 0.8993 | 3070
288.06 K, x1 = 0.7994 | 2139
288.08 K, x1 = 0.692 | 1634
289.2 K, x1 = 0.198 | 57
289.22 K, x1 = 0.097 | 10.2
289.22 K, x1 = 0.3748 | 328
289.23 K, x1 = 0.2939 | 166
289.24 K, x1 = 0.4948 | 660
289.26 K, x1 = 0.8993 | 2817
289.29 K, x1 = 0.7994 | 1961
290.21 K, x1 = 1 | 4300
290.48 K, x1 = 0.198 | 53
290.48 K, x1 = 0.3748 | 300
290.5 K, x1 = 0.097 | 9.6
290.5 K, x1 = 0.4948 | 600
290.5 K, x1 = 0.5975 | 880
290.52 K, x1 = 0.8993 | 2510
290.54 K, x1 = 0.692 | 1293
291.71 K, x1 = 0.2939 | 140
291.71 K, x1 = 0.3748 | 274
291.72 K, x1 = 0.097 | 9.2
291.72 K, x1 = 0.198 | 50
291.72 K, x1 = 0.4948 | 540
291.72 K, x1 = 0.5975 | 790
291.73 K, x1 = 0.7994 | 1562
291.73 K, x1 = 0.8993 | 2231
291.74 K, x1 = 0.692 | 1150
292.02 K, x1 = 1 | 3052
292.32 K, x1 = 1 | 3520
292.91 K, x1 = 0.198 | 46
292.91 K, x1 = 0.2939 | 129
292.91 K, x1 = 0.3748 | 250
292.92 K, x1 = 0.7994 | 1393
292.92 K, x1 = 0.8993 | 1984
294.08 K, x1 = 1 | 2544
294.1 K, x1 = 0.198 | 43
294.1 K, x1 = 0.2939 | 119
294.1 K, x1 = 0.3748 | 230
294.1 K, x1 = 0.5975 | 650
294.1 K, x1 = 0.8993 | 1775
294.41 K, x1 = 1 | 2896
295.27 K, x1 = 0.097 | 8
295.27 K, x1 = 0.198 | 40.8
295.27 K, x1 = 0.2939 | 111
295.27 K, x1 = 0.3748 | 212
295.27 K, x1 = 0.4948 | 410
295.27 K, x1 = 0.5975 | 590
295.27 K, x1 = 0.692 | 840
295.27 K, x1 = 0.8993 | 1599
296.14 K, x1 = 1 | 2140
296.45 K, x1 = 0.097 | 7.7
296.45 K, x1 = 0.198 | 38.3
296.45 K, x1 = 0.2939 | 103
296.45 K, x1 = 0.3748 | 195
296.45 K, x1 = 0.5975 | 540
296.45 K, x1 = 0.692 | 760
296.45 K, x1 = 0.8993 | 1438
296.48 K, x1 = 1 | 2402
297.63 K, x1 = 0.198 | 36.2
297.63 K, x1 = 0.2939 | 96
297.63 K, x1 = 0.3748 | 181
297.63 K, x1 = 0.4948 | 347
297.63 K, x1 = 0.5975 | 490
297.63 K, x1 = 0.692 | 700
297.63 K, x1 = 0.7994 | 920
297.63 K, x1 = 0.8993 | 1302
298.2 K, x1 = 1 | 1806
298.54 K, x1 = 1 | 2000
298.8 K, x1 = 0.5975 | 450
298.8 K, x1 = 0.8993 | 1183
298.81 K, x1 = 0.097 | 7.1
298.81 K, x1 = 0.198 | 34.3
298.81 K, x1 = 0.3748 | 168
298.81 K, x1 = 0.4948 | 320
298.81 K, x1 = 0.692 | 630
299.98 K, x1 = 0.198 | 32.3
299.98 K, x1 = 0.2939 | 84
299.98 K, x1 = 0.4948 | 294
299.98 K, x1 = 0.5975 | 410
299.98 K, x1 = 0.692 | 580
299.98 K, x1 = 0.7994 | 760
299.98 K, x1 = 0.8993 | 1071
300.61 K, x1 = 1 | 1681
301.16 K, x1 = 0.097 | 6.6
301.16 K, x1 = 0.198 | 30.6
301.16 K, x1 = 0.2939 | 79
301.16 K, x1 = 0.3748 | 145
301.16 K, x1 = 0.4948 | 271
301.16 K, x1 = 0.5975 | 379
301.16 K, x1 = 0.7994 | 690
301.16 K, x1 = 0.8993 | 970
302.33 K, x1 = 0.198 | 29
302.33 K, x1 = 0.2939 | 74
302.33 K, x1 = 0.4948 | 251
302.33 K, x1 = 0.5975 | 348
302.33 K, x1 = 0.692 | 480
302.33 K, x1 = 0.7994 | 630
302.33 K, x1 = 0.8993 | 890
302.34 K, x1 = 0.097 | 6.4
302.34 K, x1 = 1 | 1310
302.66 K, x1 = 1 | 1421
303.51 K, x1 = 0.097 | 6.2
303.51 K, x1 = 0.198 | 27.6
303.51 K, x1 = 0.2939 | 69
303.51 K, x1 = 0.4948 | 233
303.51 K, x1 = 0.5975 | 322
303.51 K, x1 = 0.692 | 440
303.51 K, x1 = 0.8993 | 810
304.41 K, x1 = 1 | 1119
304.69 K, x1 = 0.097 | 6
304.69 K, x1 = 0.198 | 26.2
304.69 K, x1 = 0.2939 | 65
304.69 K, x1 = 0.3748 | 117
304.69 K, x1 = 0.4948 | 216
304.69 K, x1 = 0.5975 | 297
304.69 K, x1 = 0.692 | 410
304.69 K, x1 = 0.7994 | 530
304.69 K, x1 = 0.8993 | 740
305.86 K, x1 = 0.198 | 24.9
305.86 K, x1 = 0.2939 | 61
305.86 K, x1 = 0.5975 | 274
305.86 K, x1 = 0.692 | 375
305.86 K, x1 = 0.7994 | 480
305.87 K, x1 = 0.097 | 5.7
306.48 K, x1 = 1 | 960
306.78 K, x1 = 1 | 1030
307.04 K, x1 = 0.097 | 5.6
307.04 K, x1 = 0.198 | 23.7
307.04 K, x1 = 0.2939 | 58
307.04 K, x1 = 0.4948 | 186
307.04 K, x1 = 0.692 | 347
307.04 K, x1 = 0.7994 | 440
308.21 K, x1 = 0.4948 | 173
308.21 K, x1 = 0.5975 | 236
308.21 K, x1 = 0.692 | 321
308.22 K, x1 = 0.097 | 5.4
308.22 K, x1 = 0.198 | 22.6
308.22 K, x1 = 0.2939 | 54
308.22 K, x1 = 0.3748 | 96
308.22 K, x1 = 0.7994 | 410
308.22 K, x1 = 0.8993 | 570
308.54 K, x1 = 1 | 830
308.84 K, x1 = 1 | 880
310.61 K, x1 = 1 | 720
310.9 K, x1 = 1 | 760
312.67 K, x1 = 1 | 630
312.95 K, x1 = 1 | 660
314.74 K, x1 = 1 | 550
315.01 K, x1 = 1 | 570
316.82 K, x1 = 1 | 480
317.07 K, x1 = 1 | 500
318.91 K, x1 = 1 | 420
319.13 K, x1 = 1 | 440
321.04 K, x1 = 1 | 374
321.19 K, x1 = 1 | 387
323.25 K, x1 = 1 | 342
